Test results published in PubChem BioAssay AID248 (DTP/NCI, 2004).
Toxic doses and inconclusive results are not listed. No stated cut-off is given here; in the data, active means T/C of 150% or more; inactive means T/C below 125%.

System: L1210 leukemia ip in BDF1 mice, survival T/C
Assay: NCI In Vivo Anticancer Drug Screen. Data for tumor model L1210 Leukemia (intraperitoneal) in B6D2F1 (BDF1) mice
Details: endpoint: mean survival time, higher = longer survival
In short: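 Read-out is survival time, reported as the treated-group measurement over the vehicle-control measurement.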

[1] = dose: 50.0 mg/kg/injection, schedule: Q04DX003 (ip), vehicle: saline
[2] = dose: 75.0 mg/kg/injection, schedule: Q01DX001 (ip), vehicle: saline
[3] = dose: 100.0 mg/kg/injection, schedule: Q04DX003 (ip), vehicle: saline
[4] = dose: 150.0 mg/kg/injection, schedule: Q01DX001 (ip), vehicle: saline
[5] = dose: 25.0 mg/kg/injection, schedule: Q04DX003 (ip), vehicle: saline
[6] = dose: 100.0 mg/kg/injection, schedule: Q04DX002 (ip), vehicle: saline with Tween-80
[7] = dose: 200.0 mg/kg/injection, schedule: Q04DX002 (ip), vehicle: saline with Tween-80
[8] = dose: 400.0 mg/kg/injection, schedule: Q04DX002 (ip), vehicle: saline with Tween-80
[9] = dose: 50.0 mg/kg/injection, schedule: Q01DX009 (ip), vehicle: saline
[10] = dose: 100.0 mg/kg/injection, schedule: Q01DX009 (ip), vehicle: saline
[11] = dose: 100.0 mg/kg/injection, schedule: Q01DX009 (ip), vehicle: Klucel (hydroxypropylcellulose) (HPC)
[12] = dose: 200.0 mg/kg/injection, schedule: Q01DX009 (ip), vehicle: Klucel (hydroxypropylcellulose) (HPC)

Measured: T/C

C[CH2][Sn]([CH2]C)([CH2]C)[S]Cc1ccccc1
inactive: dose: 1.56 mg/kg/injection, schedule: Q01DX009 (ip), vehicle: saline with Tween-80 97 % of control | dose: 3.13 mg/kg/injection, schedule: Q01DX009 (ip), vehicle: saline with Tween-80 95 % of control | dose: 6.25 mg/kg/injection, schedule: Q01DX009 (ip), vehicle: saline with Tween-80 87 % of control

O=C1CCCN1.O=C1CCCN1.[Br][Co][Br]
inactive: dose: 37.5 mg/kg/injection, schedule: Q01DX009 (ip), vehicle: saline 113 % of control | [1] 107 % of control | [2] 103 % of control | dose: 75.0 mg/kg/injection, schedule: Q01DX009 (ip), vehicle: saline 116 % of control | [3] 109 % of control | [4] 102 % of control | dose: 300.0 mg/kg/injection, schedule: Q01DX001 (ip), vehicle: saline 97 % of control

CCN(CC)CC(=O)NCC(CCN1CCCCC1)(Cc1cccc2ccccc12)C(C)C (centres undefined)
inactive: dose: 12.5 mg/kg/injection, schedule: Q04DX003 (ip), vehicle: saline 106 % of control | [5] 98 % of control | [1] 97 % of control

O=C(Cc1ccccc1)c1ccccn1
inactive: dose: 100.0 mg/kg/injection, schedule: Q01DX001 (ip), vehicle: other 95 % of control | dose: 200.0 mg/kg/injection, schedule: Q01DX001 (ip), vehicle: other 98 % of control | dose: 400.0 mg/kg/injection, schedule: Q01DX001 (ip), vehicle: other 101 % of control

COC(=O)C[CH2][Ge]([CH3])([CH3])[CH3]
inactive: dose: 6.25 mg/kg/injection, schedule: Q04DX002 (ip), vehicle: saline with Tween-80 89 % of control | dose: 12.5 mg/kg/injection, schedule: Q04DX002 (ip), vehicle: saline with Tween-80 96 % of control | dose: 25.0 mg/kg/injection, schedule: Q04DX002 (ip), vehicle: saline with Tween-80 96 % of control | [6] 95 % of control | [7] 95 % of control | [8] 93 % of control

CCOC(=O)CCC(=O)C(=O)OCC
inactive: dose: 100.0 mg/kg/injection, schedule: Q01DX001 (ip), vehicle: saline 92 % of control | dose: 200.0 mg/kg/injection, schedule: Q01DX001 (ip), vehicle: saline 102 % of control | dose: 400.0 mg/kg/injection, schedule: Q01DX001 (ip), vehicle: saline 92 % of control

Cn1cc(F)c(=O)[nH]c1=O
inactive: dose: 5.0 mg/kg/injection, schedule: Q01DX Z (ip), vehicle: carboxymethylcellulose (CMC) 96 % of control | dose: 10.0 mg/kg/injection, schedule: Q01DX Z (ip), vehicle: carboxymethylcellulose (CMC) 100 % of control | dose: 20.0 mg/kg/injection, schedule: Q01DX Z (ip), vehicle: carboxymethylcellulose (CMC) 113 % of control | dose: 40.0 mg/kg/injection, schedule: Q01DX Z (ip), vehicle: carboxymethylcellulose (CMC) 96 % of control

CCN(Cc1cc(OC)c(OC)c(OC)c1)C1CCCCC1
inactive: [9] 113 % of control | [10] 98 % of control

COc1cc(C=Nc2ccc(Oc3ccc(Cl)cc3)cc2)cc(OC)c1OC
inactive: [11] 102 % of control | [12] 96 % of control

Cc1cc[c]([Hg][c]2ccc(C)cc2)cc1
inactive: dose: 100.0 mg/kg/injection, schedule: Q04DX003 (ip), vehicle: Klucel (hydroxypropylcellulose) (HPC) 97 % of control | dose: 200.0 mg/kg/injection, schedule: Q04DX003 (ip), vehicle: Klucel (hydroxypropylcellulose) (HPC) 103 % of control | dose: 400.0 mg/kg/injection, schedule: Q04DX003 (ip), vehicle: Klucel (hydroxypropylcellulose) (HPC) 94 % of control

C[N+](C)(C)c1ccc(/C(C#N)=N/O)cc1
inactive: dose: 12.5 mg/kg/injection, schedule: Q01DX009 (ip), vehicle: Klucel (hydroxypropylcellulose) (HPC) 101 % of control | dose: 25.0 mg/kg/injection, schedule: Q01DX009 (ip), vehicle: Klucel (hydroxypropylcellulose) (HPC) 100 % of control

O=C1c2ccccc2C(=O)N1CN1CCOCC1
inactive: dose: 100.0 mg/kg/injection, schedule: Q01DX001 (ip), vehicle: saline with Tween-80 105 % of control | dose: 200.0 mg/kg/injection, schedule: Q01DX001 (ip), vehicle: saline with Tween-80 94 % of control | dose: 400.0 mg/kg/injection, schedule: Q01DX001 (ip), vehicle: saline with Tween-80 98 % of control

CCCCC(=O)Nc1cccc(OC(=O)NC)c1
inactive: dose: 100.0 mg/kg/injection, schedule: Q04DX003 (ip), vehicle: saline with Tween-80 92 % of control | dose: 200.0 mg/kg/injection, schedule: Q04DX003 (ip), vehicle: saline with Tween-80 95 % of control | dose: 400.0 mg/kg/injection, schedule: Q04DX003 (ip), vehicle: saline with Tween-80 87 % of control

CCOP(=O)(OCC)O/N=C(/c1ccccc1)C(C)C
inactive: dose: 5.0 mg/kg/injection, schedule: Q01DX001 (ip), vehicle: saline 98 % of control | dose: 10.0 mg/kg/injection, schedule: Q01DX001 (ip), vehicle: saline 98 % of control | dose: 20.0 mg/kg/injection, schedule: Q01DX001 (ip), vehicle: saline 93 % of control | dose: 40.0 mg/kg/injection, schedule: Q01DX001 (ip), vehicle: saline 100 % of control

C=CC[Se]c1ncnc2c1ncn2C1OC(CO)C(O)C1O (centres undefined)
inactive: dose: 12.5 mg/kg/injection, schedule: Q01DX005 (ip), vehicle: saline 100 % of control | dose: 25.0 mg/kg/injection, schedule: Q01DX005 (ip), vehicle: saline 110 % of control | dose: 50.0 mg/kg/injection, schedule: Q01DX005 (ip), vehicle: saline 104 % of control | [9] 90 % of control | [10] 88 % of control

CCn1c(C)nc2cc(S(=O)(=O)C(F)(F)C(F)Cl)ccc21 (centres undefined)
inactive: dose: 100.0 mg/kg/injection, schedule: Q01DX001 (ip), vehicle: Klucel (hydroxypropylcellulose) (HPC) 100 % of control | [11] 94 % of control | dose: 200.0 mg/kg/injection, schedule: Q01DX001 (ip), vehicle: Klucel (hydroxypropylcellulose) (HPC) 97 % of control | [12] 101 % of control | dose: 400.0 mg/kg/injection, schedule: Q01DX001 (ip), vehicle: Klucel (hydroxypropylcellulose) (HPC) 97 % of control | dose: 400.0 mg/kg/injection, schedule: Q01DX009 (ip), vehicle: Klucel (hydroxypropylcellulose) (HPC) 106 % of control

NNc1n[nH]c(=S)n1N
inactive: [5] 90 % of control | [3] 97 % of control

CC1(CCC#N)CCC(N)=CC1=O (centres undefined)
inactive: dose: 100.0 mg/kg/injection, schedule: Q01DX001 (ip), vehicle: carboxymethylcellulose (CMC) 96 % of control | dose: 200.0 mg/kg/injection, schedule: Q01DX001 (ip), vehicle: carboxymethylcellulose (CMC) 98 % of control | dose: 400.0 mg/kg/injection, schedule: Q01DX001 (ip), vehicle: carboxymethylcellulose (CMC) 96 % of control

Nc1cc2ncccc2c2ncccc12
inactive: [2] 107 % of control | [4] 102 % of control

Cc1cc(O)c(C)c(C)c1N=Nc1ccccc1
inactive: dose: 100.0 mg/kg/injection, schedule: Q01DX009 (ip), vehicle: saline with Tween-80 101 % of control | [6] 108 % of control | dose: 200.0 mg/kg/injection, schedule: Q01DX009 (ip), vehicle: saline with Tween-80 89 % of control | [7] 90 % of control | dose: 400.0 mg/kg/injection, schedule: Q01DX009 (ip), vehicle: saline with Tween-80 95 % of control | [8] 93 % of control

CCOC(=O)c1ccc(N(Cc2cccc([N+](=O)[O-])c2)S(=O)(=O)c2ccc(C)cc2)cc1
inactive: dose: 75.0 mg/kg/injection, schedule: Q01DX001 (ip), vehicle: saline with Tween-80 93 % of control | dose: 150.0 mg/kg/injection, schedule: Q01DX001 (ip), vehicle: saline with Tween-80 87 % of control
